25 compounds from patent publication US20160016907A1, “PYRIDINE DERIVATIVES AS MUSCARINIC M1 RECEPTOR POSITIVE ALLOSTERIC MODULATORS” (PFIZER INC., priority 2014, published 2016) can be followed below.

Structures are written as SMILES.

The assay addresses T1, human M1 muscarinic acetylcholine receptors (Homo sapiens, UniProt P11229).
T1 sequence (P11229 1-460): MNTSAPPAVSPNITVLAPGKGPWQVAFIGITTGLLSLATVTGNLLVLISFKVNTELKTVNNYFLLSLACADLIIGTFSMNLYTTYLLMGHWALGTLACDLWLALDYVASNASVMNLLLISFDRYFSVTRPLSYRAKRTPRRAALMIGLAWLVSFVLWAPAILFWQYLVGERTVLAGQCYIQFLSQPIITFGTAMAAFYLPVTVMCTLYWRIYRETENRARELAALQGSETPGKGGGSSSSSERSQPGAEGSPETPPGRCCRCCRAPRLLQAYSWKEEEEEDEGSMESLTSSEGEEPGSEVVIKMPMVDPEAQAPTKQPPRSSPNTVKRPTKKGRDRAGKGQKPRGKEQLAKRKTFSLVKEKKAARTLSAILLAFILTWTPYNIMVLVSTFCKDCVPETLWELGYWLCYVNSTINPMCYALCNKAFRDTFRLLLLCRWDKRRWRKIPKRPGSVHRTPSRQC
Kind of assay: M1 FLIPR assay (PAM, intracellular calcium). Type of assay: cell-based. The note with it: potentiation of EC10-EC30 acetylcholine, values marked a: geometric mean of ≧7 determinations, read-out: M1 PAM Inflection Point (μM) Geometric mean of 2-6 determinations (unless otherwise indicated). On the procedure: This assay was designed to select and characterize compounds that affect the activity of human M1 muscarinic acetylcholine receptors (Similar M1 PAM FLIPR assays can be found, for example, at U.S. Pat. No. 8,664,234). Human M1 receptors were stably expressed in Chinese hamster ovary (CHO) cells (HD Bioscience). The effect of test compounds on intracellular calcium was measured on an FLIPR Tetra (Molecular Devices) using the Fluo-8, AM calcium dye (Molecular Probes) with a red dye quenching agent (Sigma).
CHO cells expressing hM1 cells had been previously cultured and frozen in assay ready vials. Cell vials were thawed, then plated at a density of 10,000 cells per well in a 384 well black wall, clear bottom plate (Greiner #781090) and incubated overnight at 37 degrees C. with 5% CO2. Cells were grown and plated in F12 nutrient media (Gibco BRL #21700-075) supplemented with 10% FBS (Hyclone #CH30160.03) and Pen/Strep (Gibco #15070-063).
After overnight incubation, cell plates were removed from the incubator and the growth media was discarded and replaced with loading solution containing the following: 2 μM Fluo-8-AM (Molecular Probes #F14242), 2 mM Probenecid (Sigma #P8761), lx Acid Red 1 (Sigma #210633), in HBSS buffer containing (grams/L): 0.1 CaCl2, 0.1 MgCl2*6H2O, 0.049 MgSO4, 0.4 KCl, 0.06 KH2PO4, 8.06 NaCl, 0.12 Na2HPO4*12H2O, 1.1 D-glucose*H2O, 0.35 NaHCO3, 4.766 HEPES, pH 7.4. The plate was incubated in the loading solution at 37 degrees C. in the dark for 1 hour.
Test compounds were initially prepared as 100% DMSO stock solutions, then transferred and serially diluted in 384-well compound plates (Greiner #784201). Each compound was tested at 10 concentrations in duplicate per experiment. Positive and negative controls for positive allosteric modulator evaluation were 30 μM acetylcholine (Ach) and an EC10-EC30 concentration of acetylcholine, approximately 2 nM but could be adjusted for each experiment to maintain the EC10-EC30 range.
After the 1-hour dye loading incubation, test compounds were added to the cell plate containing Fluo-8. Approximately 10 minutes after compound addition, an EC10-EC30 concentration of acetylcholine was added to each well and the fluorescence measured to determine the PAM potentiation of the compound.
Data was exported from the FLIPR Tetra as maximum fluorescence/minimum fluorescence for each well. The percent effect for each compound well was determined using the mean values for the positive and negative controls on each plate for each read. Percent effect was 100*(compound negative control)/(positive control negative control). Dose response curves were fitted to the compound percent effect data using a 4-parameter logistic fit model to determine PAM (positive allosteric modulator) Inflection Point values. Compounds with inverted U dose response curves had the concentrations greater than the concentration giving the peak response excluded from the fit. Data was reported as Inflection Point. The compounds of Examples 1-72 had activity according to this assay, generally with an Inflection Point (IP) of 10 μM or less (using Inflection Point as a measure of activity). Such a result is indicative of the intrinsic activity of the compounds of the invention as M1 allosteric modulators.
With `Cc1cnc(C(=O)NC[C@H](C)O)cc1Cc1ccc(-n2cccn2)cc1` [Example 36, N-[(2S)-2-hydroxypropyl]-5-methyl-4-[4-(1H-pyrazol-1-yl)benzyl]pyridine-2-carboxamide], the EC50 is 6.65 µM.
Consider `Cc1cnc(C(=O)N[C@@H]2CCCCNC2=O)cc1Cc1ccc(-n2cccn2)cc1` [Example 37, 5-methyl-N-[(3R)-2-oxoazepan-3-yl]-4-[4-(1H-pyrazol-1-yl)benzyl]pyridine-2-carboxamide], for which the EC50 was 3.56 µM.
In the case of `Cc1cnc(C(=O)N[C@H](CO)C(C)C)cc1Cc1ccc(-n2cccn2)cc1` [Example 38, N-[(2S)-1-hydroxy-3-methylbutan-2-yl]-5-methyl-4-[4-(1H-pyrazol-1-yl)benzyl]pyridine-2-carboxamide] it was 3.63 µM; in that of `CC[C@@H](CO)NC(=O)c1cc(Cc2ccc(-n3cccn3)cc2)c(C)cn1` [Example 39, N-[(2S)-1-hydroxybutan-2-yl]-5-methyl-4-[4-(1H-pyrazol-1-yl)benzyl]pyridine-2-carboxamide], 4.83 µM; in that of `Cc1cnc(C(=O)NCC2CC2)cc1Cc1ccc(-n2cccn2)cc1` [Example 40, N-(cyclopropylmethyl)-5-methyl-4-[4-(1H-pyrazol-1-yl)benzyl]pyridine-2-carboxamide], 9.64 µM.
The figure for `Cc1cnc(C(=O)NCC(=O)N(C)C)cc1Cc1ccc(-n2cccn2)cc1` [Example 41, N-[2-(dimethylamino)-2-oxoethyl]-5-methyl-4-[4-(1H-pyrazol-1-yl)benzyl]pyridine-2-carboxamide] is 8.03 µM; for `Cc1cnc(C(=O)NCc2ccon2)cc1Cc1ccc(-n2cccn2)cc1` [Example 42, 5-methyl-N-(1,2-oxazol-3-ylmethyl)-4-[4-(1H-pyrazol-1-yl)benzyl]pyridine-2-carboxamide] it is 8.13 µM; for `Cc1cnc(C(=O)NC[C@H]2CCCO2)cc1Cc1ccc(-n2cccn2)cc1` [Example 43, 5-methyl-4-[4-(1H-pyrazol-1-yl)benzyl]-N-[(2R)-tetrahydrofuran-2-ylmethyl]pyridine-2-carboxamide] it is 9.25 µM.
The figure for `Cc1cnc(C(=O)NCC2(O)CCC2)cc1Cc1ccc(-n2cccn2)cc1` [Example 44, N-[(1-hydroxycyclobutyl)methyl]-5-methyl-4-[4-(1H-pyrazol-1-yl)benzyl]pyridine-2-carboxamide] is 2.7 µM; for `Cc1cnc(C(=O)NCC2CCO2)cc1Cc1ccc(-n2cccn2)cc1` (stereo not shown) [Example 45, 5-methyl-N-(oxetan-2-ylmethyl)-4-[4-(1H-pyrazol-1-yl)benzyl]pyridine-2-carboxamide] it is 7.21 µM.
With `Cc1cnc(C(=O)NC2CCC(F)(F)C2)cc1Cc1ccc(-n2cccn2)cc1` (stereo not shown) [Example 48, N-(3,3-difluorocyclopentyl)-5-methyl-4-[4-(1H-pyrazol-1-yl)benzyl]pyridine-2-carboxamide], the EC50 worked out at 3.5 µM.
In the case of `COc1ccc(Cc2cc(C(=O)N[C@H]3CCCC[C@@H]3O)ncc2C)cc1` [Example 50, N-[(1S,2S)-2-hydroxycyclohexyl]-4-(4-methoxybenzyl)-5-methylpyridine-2-carboxamide] it was 3.48 µM; in that of `Cc1cnc(C(=O)N[C@H]2CCCC[C@@H]2O)cc1Cc1ccc(Cl)nc1` [Example 51, 4-[(6-chloropyridin-3-yl)methyl]-N-[(1S,2S)-2-hydroxycyclohexyl]-5-methylpyridine-2-carboxamide], 2.83 µM; in that of `O=C(N[C@H]1CCOC[C@@H]1O)c1cc(Cc2ccc(-n3cccn3)cc2)c(Cl)cn1` [Example 52, 5-chloro-N-[(3R,4S)-3-hydroxytetrahydro-2H-pyran-4-yl]-4-[4-(1H-pyrazol-1-yl)benzyl]pyridine-2-carboxamide], 0.187 µM.
The figure for `Cc1c[n+]([O-])c(C(=O)N[C@H]2CCOC[C@@H]2O)cc1Cc1ccc(-n2cccn2)cc1` [Example 53, N-[(3R,4S)-3-hydroxytetrahydro-2H-pyran-4-yl]-5-methyl-4-[4-(1H-pyrazol-1-yl)benzyl]pyridine-2-carboxamide 1-oxide] is 0.271 µM; for `O=C(N[C@H]1CCOC[C@@H]1O)c1cc(Cc2ccc(-n3cccn3)cc2)c(C(F)F)cn1` [Example 54, 5-(difluoromethyl)-N-[(3R,4S)-3-hydroxytetrahydro-2H-pyran-4-yl]-4-[4-(1H-pyrazol-1-yl)benzyl]pyridine-2-carboxamide] it is 0.198 µM; for `Cc1cnc(C(=O)N[C@H]2CCOC[C@@H]2O)cc1[C@@H](F)c1ccc(-n2cccn2)cc1` [Example 55, 4-{(S)-Fluoro[4-(1H-pyrazol-1-yl)phenyl]methyl}-N-[(3R,4S)-3-hydroxytetrahydro-2H-pyran-4-yl]-5-methylpyridine-2-carboxamide] it is above 9.12 µM.
The figure for `Cc1cnc(C(=O)N[C@H]2CCOC[C@@H]2O)cc1[C@H](F)c1ccc(-n2cccn2)cc1` [Example 56, 4-{(R)-Fluoro[4-(1H-pyrazol-1-yl)phenyl]methyl}-N-[(3R,4S)-3-hydroxytetrahydro-2H-pyran-4-yl]-5-methylpyridine-2-carboxamide] is 0.03 µM; for `Cc1cnc(C(=O)N[C@H]2CCOC[C@@H]2O)cc1Cc1ccc(-c2cocn2)cc1` [Example 57, N-[(3R,4S)-3-Hydroxytetrahydro-2H-pyran-4-yl]-5-methyl-4-[4-(1,3-oxazol-4-yl)benzyl]pyridine-2-carboxamide] it is 0.144 µM.
Regarding `COc1cnc(C(=O)N[C@H]2CCOC[C@@H]2O)cc1Cc1ccc(-c2coc(C)n2)cc1` [Example 58, N-[(3R,4S)-3-Hydroxytetrahydro-2H-pyran-4-yl]-5-methoxy-4-[4-(2-methyl-1,3-oxazol-4-yl)benzyl]pyridine-2-carboxamide], the EC50 stood at 0.086 µM.
Regarding `Cc1cnc(C(=O)N[C@H]2CCOC[C@@H]2O)cc1Cc1ccc(-c2cn(C)nc2C)cc1` [Example 61, 4-[4-(1,3-Dimethyl-1H-pyrazol-4-yl)benzyl]-N-[(3R,4S)-3-hydroxytetrahydro-2H-pyran-4-yl]-5-methylpyridine-2-carboxamide], the EC50 was 0.116 µM.
In the case of `O=C(N[C@H]1CCOC[C@@H]1O)c1cc(Cc2ccc(-n3cccn3)cc2)c(OC(F)F)cn1` [Example 62, 5-(difluoromethoxy)-N-[(3R,4S)-3-hydroxytetrahydro-2H-pyran-4-yl]-4-[4-(1H-pyrazol-1-yl)benzyl]pyridine-2-carboxamide] it was 0.129 µM; in that of `Cc1cnc(C(=O)N[C@H]2CCOC[C@@H]2O)cc1Cc1ccc(-c2cnn(C)c2)nc1` [Example 65, N-[(3R,4S)-3-hydroxytetrahydro-2H-pyran-4-yl]-5-methyl-4-{[6-(1-methyl-1H-pyrazol-4-yl)pyridin-3-yl]methyl}pyridine-2-carboxamide], 0.18 µM.
`Cc1cnc(C(=O)N[C@H]2CCOC[C@@H]2O)cc1Cc1ccc(-c2cn[nH]c2)cc1` [Example 66, N-[(3R,4S)-3-hydroxytetrahydro-2H-pyran-4-yl]-5-methyl-4-[4-(1H-pyrazol-4-yl)benzyl]pyridine-2-carboxamide]: the EC50 was 0.114 µM.
The figure for `Cc1cnc(C(=O)N[C@H]2CCOC[C@@H]2O)cc1Cc1ccc(-c2cnn(C)c2)cc1` [Example 67, N-[(3R,4S)-3-hydroxytetrahydro-2H-pyran-4-yl]-5-methyl-4-[4-(1-methyl-1H-pyrazol-4-yl)benzyl]pyridine-2-carboxamide] is 0.052 µM.
